Test results published in patent US20230285568A1, “ENGINEERING DIVERSE ANTIGEN-PRESENTING CELLS TO CONTROL ANTIGEN-SPECIFIC RESPONSES” (University of Maryland, Baltimore, priority 2020, published 2023).

Tested on: OVA-specific CD4+ T (OT-II) cells
Test: BMDC/B cell co-culture with OT-II cells, CFSE dilution and CD25 expression
Format: cell-based, mouse
Conditions: BMDCs and B cells, 3-day co-culture
Procedure: T cell proliferation studies assays were carried out as described. The assay was carried out in T cell media. BMDCs (2×10^4/well) or B cells (2×10^4/well) were seeded into 96-well round-bottom cell culture plates and incubated with LAg-nano or PAg-nano at various particle concentrations and Ag loadings for 3 hours. Following incubation, all wells were washed to remove excess particles that had not been internalized by cells. Cells were co-cultured with 2×10^4/well of each OTI (CD8) and OTII (CD4) T cells). Groups receiving antigen in lieu of LAg-nano or PAg-nano received soluble OVA323-339 or SIINFEKL (SEQ ID NO:1; 100 ng/mL) at this time. After 3 days of co-culture, the T cells were collected, stained for viability, CD4, and CD8 and analyzed using flow cytometry. The extent of T cell proliferation was analyzed by CFSE dilution using flow cytometry. Ag processing kinetics in B cells was determined by loading with long GP100, KVPRNQDWL (SEQ ID NO:4; short GP100), or lipid-long GP100, […] (lipid-GP100; SEQ ID NO:3). […]
BMDCs and B cells loaded with unmodified ovalbumin (OVA) MHC II-restricted antigen (OVA323-339) or lipo-OVA323-339 were co-cultured with OVA-specific CD4^+ T (OT-II) cells for 3 days. CD25+ expression was detected and the proliferation and division indices were calculated. […] FIGS. 11E through 11H show quantitation of the proliferation and division indices of OT-II T cells. […]

“Lipo-OVA323-339: DSPE-PEG2000 lipid conjugated to OVA323-339 (ISQAVHAAHAEINEAGR; SEQ ID NO:2)” was tested, and the “APC internalization and MHC II-restricted presentation to OTII CD4+ T cells” value was “enables APC internalization and promotes MHC II-restricted presentation”.
